Source: patent publication US10251902B2, “Pharmaceutical composition for treating or preventing neuropsychiatric disease, containing flavone-6-C-glucose derivatives as active ingredients” (priority 2013, dated 2019)

Tests used:
[1] = system: anxiety symptoms in a normal status; experiment: Marble burying test; assay type: in vivo, ICR mice; conditions: swertisin 10 mg/kg
Experimental: (§1) Six-week old ICR mice in about 26 g to 28 g (Orientbio Inc, Republic of Korea) were received water and feed without constraint and adapted for 5 days under an environment having about 23±1° C. of temperature, about 60±10% of humidity and 12-hour light/dark cycle (animal laboratory at College of Pharmacy, Kyung-Hee University), and then used for the experiment.
As a method of measuring alleviation of anxiety symptoms in a normal status, the marble burying test was conducted based on the nature of mice that they dig when feel anxiety. Inside of a cage in size of 40 cm s 27 cm s 18 cm was covered with straw to the height of 4 cm, and 25 marbles having same pattern were arranged at intervals of 3 cm. Two groups (10 mice per each group) were prepared as the drug administration group 1, wherein swertisin, which is one of the flavone-6-C-β-D-glucose derivatives prepared in Example 3, was administered, and the control 1. […]
After 60 minutes of administration, mice of the drug administration group 1 and the control 1 were carefully located in the cage having the marbles and the mice were allowed to move freely for 30 minutes. After 30 minutes, the number of buried marbles under straw was counted. […] The more the number of buried marbles, it was assessed that the laboratory animal feels anxiety severer (Broekkamp, C L. et al., Eur J Pharmacol., 126, pp 223-229, 1986).

mouse model of stroke = experiment: Y-maze test in mouse model of stroke; assay type: in vivo, ICR mice; conditions: for Alternation Behavior (%): Table 11, test on 7th day; for Total Entry: Table 12
Experimental: as §1, with “Seven-week” for “Six-week”, “30” for “26”, “35” for “28”
The laboratory animal in 1) was located in an operating room, adapted for 60 minutes, and anesthetized in a space providing anaesthetic gasses (nitrous oxide: 70%; oxygen: 30%; isoflurane: 2.0%). Pain reflex was examined to confirm the anesthesia. The laboratory animal was lain down straight on an operating table, and fixed its upper limb and head. Skin from the spot, where the upper limb and the center line meet, was incised as 1.5 cm to expose the both common carotid arteries by using tweezers while not damaging the tissues. Tissues and nerves attached to the exposed carotid arteries were separated and fixed with an aneurysm clip. The clip was removed after 15 minutes and reperfused, and the incised area was sutured with sutures. After the suture, the laboratory animal was immediately moved to a recovery room (32-33° C., O2 enrichment condition) and kept until it recovers from anesthesia. Observation on its weight and status was conducted once a day for 4 days after the operation.
Administration of the Swertia japonica extract prepared in Example 1 was initiated to the mice prepared in the 1) immediately after the operation 3), and kept administering at the same time for 7 days. Five groups (5 mice per each group) were prepared as drug administration groups 1, 2 and 3, wherein the Swertia japonica extract prepared in Example 1 was administered thereto; and controls 1 and 2. 50 mg/kg, 100 mg/kg and 200 mg/kg of the Swertia japonica extract was administered to the drug administration groups 1, 2 and 3 respectively; and 0.15 mL of Tween 80 was administered to the controls 1 and 2 respectively. At the 7th day from the initial administration, the Y-maze test was conducted for the drug administration groups 1 to 3 and the controls 1 to 2 in the same manner as Experimental Example 1-5.
After 60 minutes, mice of the drug administration groups 1-3 and the controls 1-2 were carefully located on each branches of the Y-maze, which was divided as A, B and C respectively, and let the mice move freely for 8 minutes, and then recorded branches that mice have entered. The entrance was recorded when the entire body (i.e. including the tail) has completely entered. It was also recorded when the mice entered again into the branch that the mice have entered before. The result was converted into % via Equation 1.
Administration of swertisin prepared in Example 3 was initiated to the mice prepared in 1) immediately after the operation 3), and kept administering at the same time for 7 days. Five groups (5 mice per each group) were prepared as drug administration groups 1, 2 and 3, wherein swertisin prepared in Example 3 was administered thereto; and controls 1 and 2. 50 mg/kg, 100 mg/kg and 200 mg/kg of swertisin was administered to the drug administration groups 1, 2 and 3 respectively; and 0.15 mL of Tween 80 was administered to the controls 1 and 2 respectively. At the 7th day from the initial administration, the Y-maze test was conducted for the drug administration groups 1 to 3 and the controls 1 to 2 in the same manner as Experimental Example 1.

[2] = swertisin 50 mg/kg for 7 days after stroke operation
[3] = swertisin 100 mg/kg for 7 days after stroke operation
[4] = swertisin 200 mg/kg for 7 days after stroke operation

COc1cc2oc(-c3ccc(O)cc3)cc(=O)c2c(O)c1[C@@H]1O[C@H](CO)[C@@H](O)[C@H](O)[C@H]1O [swertisin]
number of the buried marbles compared to that of the control 1, in words [1]: decreased | Number of Buried Marbles ([1]; 60 minutes after administration, 30 minutes in cage, 25 marbles): 21.78 ± 1.856 | Alternation Behavior (%) (mouse model of stroke; [2]): 56.10 ± 7.431% | Alternation Behavior (%) (mouse model of stroke; [3]): 57.58 ± 12.86% | Alternation Behavior (%) (mouse model of stroke; [4]): 70.46 ± 15.74% | Total Entry (mouse model of stroke; [2]): 24.14 ± 2.478 | Total Entry (mouse model of stroke; [3]): 28.50 ± 6.364 | Total Entry (mouse model of stroke; [4]): 22.00 ± 5.958
